In US20240091218A1, “METHODS OF TREATING PROSTATE CANCER USING EXICORILANT AND ENZALUTAMIDE” (Corcept Therapeutics Incorporated, priority 2022, published 2024):
Values joined by “and” are separate entries in the source; they are usually repeats but may differ in a detail not shown here. Identical values can stand only once. “Also recorded” adds a separate entry of the source. Like-named read-outs stand apart in the source and are kept apart here.

Tests used:
[1] = male, human, in vivo
GR target genes (CDKN1C) = assay: GR target gene expression in blood (NanoString)
ER and AR = assay: selectivity for GR relative to ER and AR
[2] = system: 22Rv1 prostate cancer xenografts; assay: mouse 22Rv1 prostate cancer xenografts; format: in vivo; conditions: 21 days
Description: Left: N=10 mice/group. Castration performed 5 days after inoculation with 22Rv1 tumor cells; exicorilant treatment initiated on day 6 for 21 days. Right: N=10 mice/group. Castration performed 3 days before implantation of 22Rv1 tumor cells; exicorilant treatment initiated on day 7 for 21 days.

human GR [3] = biological target: T1, human GR (Homo sapiens, UniProt P04150); assay: human GR functional assays; format: cell-based
T1 sequence (P04150 1-777): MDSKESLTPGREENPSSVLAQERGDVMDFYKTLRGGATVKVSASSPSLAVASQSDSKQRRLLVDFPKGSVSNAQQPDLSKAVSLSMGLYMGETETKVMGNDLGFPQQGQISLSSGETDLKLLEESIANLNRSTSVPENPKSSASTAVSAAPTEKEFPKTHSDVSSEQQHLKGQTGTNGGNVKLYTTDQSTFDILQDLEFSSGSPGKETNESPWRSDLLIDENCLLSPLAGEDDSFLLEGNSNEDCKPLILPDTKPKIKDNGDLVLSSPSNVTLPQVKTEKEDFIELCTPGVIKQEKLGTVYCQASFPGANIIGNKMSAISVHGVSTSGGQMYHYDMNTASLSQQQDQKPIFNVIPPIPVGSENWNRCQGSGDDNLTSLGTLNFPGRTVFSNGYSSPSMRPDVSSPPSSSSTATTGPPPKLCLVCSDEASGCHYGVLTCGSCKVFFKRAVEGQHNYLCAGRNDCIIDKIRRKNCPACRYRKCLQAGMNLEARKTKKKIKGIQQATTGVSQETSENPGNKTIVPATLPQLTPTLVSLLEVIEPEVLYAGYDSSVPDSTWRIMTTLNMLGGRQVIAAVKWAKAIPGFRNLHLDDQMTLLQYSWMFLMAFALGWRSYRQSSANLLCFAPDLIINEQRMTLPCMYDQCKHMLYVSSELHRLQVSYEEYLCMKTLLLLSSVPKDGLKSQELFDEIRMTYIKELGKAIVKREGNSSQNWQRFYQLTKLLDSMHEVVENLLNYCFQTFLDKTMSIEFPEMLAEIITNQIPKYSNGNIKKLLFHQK

human GR [4] = biological target: T1, human GR; assay: human GR binding
[5] = exicorilant pharmacokinetics in Segment 2 patients; format: in vivo, human; conditions: for AUC(0-t) / Cmax: male, human, in vivo, oral, once daily with food; for AUC(0-t): read-out: AUC0-24, geometric mean; for Cmax: read-out: Cmax, geometric mean
Description: Exicorilant pharmacokinetics observed in the patients in Segment 2 are illustrated in FIG. 4A (data are shown as geometric mean plus geometric standard deviation), and tabulated in TABLE 6.

[6] = Description: The present study was an investigation of the safety and efficacy of exicorilant when administered in combination with enzalutamide in the treatment of patients suffering from metastatic castration-resistant prostate cancer (mCRPC). […] Patients with histologically confirmed prostate cancer, who had received at least two prior regimens of cytotoxic chemotherapy, were eligible for this study.
Patients in Segment 1 of the study received exicorilant twice daily under fasted conditions. This segment of the study was performed with a standard ‘3+3’ design, including one cohort with an enzalutamide alone lead-in. Enzalutamide was administered once daily.
Patients in Segment 2 of the study received exicorilant once daily under fed conditions. This segment of the study was a double-blind study, in which patients were randomized 3:1 to exicorilant titration (starting at 240 mg, titrated to 280 mg followed by 320 mg every 2 weeks as tolerated starting Cycle 1 Day 16) or to stay on exicorilant 240 mg+placebo. Enzalutamide was administered once daily.
Treatment emergent adverse events (TEAEs) and dose-limiting toxicity events (DLTs) were evaluated for the patients in Segment 2.
Dose-limiting toxicities (DLTs) were recorded from first dose of exicorilant through Cycle 3 and were defined as considered possibly or probably related to study drug by the investigator.

cortisol, ACTH = assay: serum cortisol, ACTH and 24-h urinary free cortisol in patients; format: in vivo, human; conditions: for serum cortisol and ACTH levels: patients receiving exicorilant and enzalutamide
Description: Data from Segment 2 subjects whose exicorilant doses were escalated to the doses indicated on the horizontal axis. The 24-h UFC reference range was 10-100 μg/day. The 24-h UFC value for C1D1 (cycle 1, day 1) indicates the initial 24-h UFC levels.
Consistent with prior studies of exicorilant and other SGRMs, morning serum cortisol and ACTH levels were not affected in the safety population or patients who escalated to 320 mg exicorilant. […] The grey band indicates the baseline mean±SD. End of treatment: n=9; cycle 9 day 1: n=3; cycle 6 day 1: n=8; cycle 3 day 1: n=14; cycle 2 day 1: n=13; baseline: n=20.

[7] = system: metastatic castration-resistant prostate cancer (mCRPC)
Description: Patients received either exicorilant 180 mg twice daily (BID)+enzalutamide 160 mg once daily (QD), or exicorilant 140 mg BID+enzalutamide 160 mg QD with a 28-day enzalutamide lead-in, or exicorilant 140 mg BID+enzalutamide 160 mg QD without an enzalutamide lead-in. Segment 2 enrolled patients who were on a stable dose of enzalutamide with rising PSA (25% increase over nadir and an absolute value >1 ng/mL) and evaluated QD dosing of exicorilant in a double-blind design. All segment 2 patients received exicorilant 240 mg QD+enzalutamide and were randomized 3:1 to titrate to exicorilant 280 mg or 320 mg or to receive placebo.
Segment 2 of the study was a double-blind, placebo-controlled study of patients with rising PSA; exicorilant was administered once-daily, at a dose that was phased-in (titrated in these patients from 240 mg/day, to 280 mg/ day, to 320 mg/day). […] Twenty five patients were enrolled and randomized in a ratio of 3:1 to arm A or to arm B. Exicorilant was administered to the patients once per day, with food; enzalutamide was administered at the dose that was currently tolerated and stable for each patient. Pharmacokinetic assessments of both exicorilant and enzalutamide were made on cycle 1, day 15 (C1D15), and two weeks after each dose escalation; pharmacokinetic assessments of exicorilant were made after each dose reduction (if any). Pharmacodynamic (PD) assessments were made on cycle 1, day 1 (C1D1), cycle 1, day 15 (C1D15), and two weeks after each dose escalation every three cycles from cycle 3, and upon exicorilant discontinuation or disease progression.
PSADT was calculated prior to the first dose of exicorilant (patients on enzalutamide alone), and after C1D1, C2D1, and C3D1 (where “C1D1” stands for cycle 1, day 1 of the combined treatment; “C2D1” stands for cycle 2, day 1 of the combined treatment; and “C3D1” stands for cycle 3, day 1 of the combined treatment).
The median duration of exposure to exicorilant was 9.7 weeks (range: 2-61). In the results shown in FIG. 8A, tumor response was assessed by Prostate Cancer Clinical Trials Working Group 3 (PCWG3) criteria, incorporating modified “Response Evaluation Criteria in Solid Tumors v1.1” (mRECIST v1.1) criteria. Imaging-based PFS was assessed by mRECIST v1.1, progression on bone lesions per PCWG3, or death.

[8] = Arm A, EXI 240 mg + ENZA 160 mg (15 PK observations)
[9] = Arm A, EXI 280 mg + ENZA 160 mg (8 PK observations)
[10] = Arm A, EXI 320 mg + ENZA 160 mg (8 PK observations)
[11] = Arm B, EXI 240 mg + ENZA 160 mg (14 PK observations, combined)
[12] = Segment 2 (n = 25), PCWG3 criteria

Compound: CNC(=O)c1ccc(N2C(=S)N(c3ccc(C#N)c(C(F)(F)F)c3)C(=O)C2(C)C)cc1F [enzalutamide]
- enzalutamide exposures in combination with exicorilant [1]: consistent with historical data for enzalutamide 160 mg alone
- CDKN1C expression (GR target genes (CDKN1C); enzalutamide alone, Segment 1 lead-in): not affected

Compound: Cn1ncc(S(=O)(=O)N2CC[C@H]3Cc4c(cnn4-c4ccc(F)cc4)C[C@]3(C(=O)c3cc(C(F)(F)F)ccn3)C2)n1 [exicorilant, ((4aR,8aS)-1-(4-fluorophenyl)-6-((2-methyl-2H-1,2,3-triazol-4-yl)sulfonyl)-4,4a,5,6,7,8,8a,9-octahydro-1H-pyrazolo[3,4-g]isoquinolin-4a-yl)(4-(trifluoromethyl)pyridin-2-yl)methanone]
- selectivity for GR (ER and AR): selectivity for GR relative to ER and AR
- tumor growth ([2]; exicorilant with castration vs castration alone, N=10 mice/group): significantly reduced tumor growth
- Ki (human GR [3]): < 15 nM
- mode of action at GR (human GR [3]): competitive, reversible, full antagonist of GR
- Ki (human GR [4]): < 1 nM
- exicorilant exposures across arms and dose levels ([5]; Segment 2, 240-320 mg): largely overlapping across arms and dose levels
- AUC(0-t) [5, 8]: 366 µg·h/mL
- Cmax [5, 8]: 17700 ng/mL
- AUC(0-t) [5, 9]: 401 µg·h/mL
- Cmax [5, 9]: 19600 ng/mL
- AUC(0-t) [5, 10]: 428 µg·h/mL
- Cmax [5, 10]: 19600 ng/mL
- AUC(0-t) [5, 11]: 375 µg·h/mL
- Cmax [5, 11]: 17200 ng/mL
- most frequently reported TEAE assessed as related to exicorilant ([6]; human, in vivo): fatigue
- Exicorilant-related TEAE ALP increased, % of patients ([6]; male, human, in vivo): (12.0%)
- Exicorilant-related TEAE ALP increased, number of patients ([6]; male, human, in vivo): 3
- Exicorilant-related TEAE Anemia, % of patients ([6]; male, human, in vivo): (16.0%)
- Exicorilant-related TEAE Anemia, number of patients ([6]; male, human, in vivo): 4
- Exicorilant-related TEAE Constipation, % of patients ([6]; male, human, in vivo): (28.0%)
- Exicorilant-related TEAE Constipation, number of patients ([6]; male, human, in vivo): 7
- Exicorilant-related TEAE Decreased appetite, % of patients ([6]; male, human, in vivo): (24.0%)
- Exicorilant-related TEAE Decreased appetite, number of patients ([6]; male, human, in vivo): 6
- Exicorilant-related TEAE Lymphocyte count decreased, % of patients ([6]; male, human, in vivo): (12.0%)
- Exicorilant-related TEAE Lymphocyte count decreased, number of patients ([6]; male, human, in vivo): 3
- Exicorilant-related TEAE Nausea, % of patients ([6]; male, human, in vivo): (20.0%)
- Exicorilant-related TEAE Nausea, number of patients ([6]; male, human, in vivo): 5
- Exicorilant-related TEAE Pain in extremity, % of patients ([6]; male, human, in vivo): (20.0%)
- Exicorilant-related TEAE Pain in extremity, number of patients ([6]; male, human, in vivo): 5
- Patients with any TEAE related to exicorilant, % ([6]; male, human, in vivo): (92.0%)
- Patients with any TEAE related to exicorilant, number ([6]; male, human, in vivo): 23
- SAEs assessed as being related to exicorilant, number ([6]; male, human, in vivo): 1
- exicorilant-related AE back pain, % of patients ([6]; male, human, in vivo): 35%
- exicorilant-related AE decreased appetite, % of patients ([6]; male, human, in vivo): 27%
- exicorilant-related AE fatigue, % of patients ([6]; male, human, in vivo): 57%
- exicorilant-related AE pain in extremity, % of patients ([6]; male, human, in vivo): 22%
- 24-h urinary free cortisol (UFC) levels (cortisol, ACTH; Segment 2 subjects with escalated exicorilant doses): did not increase UFC levels
- serum cortisol and ACTH levels (cortisol, ACTH): did not affect cortisol or ACTH levels; also recorded: not significantly altered; also recorded: no significant alterations
- pharmacodynamic effects (gene expression), with food vs fasting (GR target genes (CDKN1C); 240-320 mg QD with food vs BID fasting (Segment 1)): larger when exicorilant was administered with food; also recorded: greater than those observed in fasted patients
- modulation of GR target genes (GR target genes (CDKN1C); patients receiving exicorilant): confirmed modulation of GR target genes; also recorded: Modulation of GR target genes was observed

Compound: CNC(=O)c1ccc(N2C(=S)N(c3ccc(C#N)c(C(F)(F)F)c3)C(=O)C2(C)C)cc1F.Cn1ncc(S(=O)(=O)N2CC[C@H]3Cc4c(cnn4-c4ccc(F)cc4)C[C@]3(C(=O)c3cc(C(F)(F)F)ccn3)C2)n1 [exicorilant+enzalutamide]
- PSA reductions at any time during treatment, % of patients ([7]; Segment 2): 56%
- PSA reductions at any time during treatment, number of patients ([7]; Segment 2): 14
- patients with greater than 25% increase in PSADT ([7]; Segment 2): Two
- PSA response (≥50% PSA reduction from baseline), number of patients ([7]; Segment 2 (n = 25)): 1
- reductions in PSA as compared to baseline, % of patients ([7]; Segment 2 (n = 25)): 15% and 16%
- reductions in PSA as compared to baseline, number of patients ([7]; Segment 2 (n = 25)): 4
- radiographic / imaging-based tumor responses ([7]; Segment 2 (n = 25), PCWG3/mRECIST v1.1): no radiographic responses; also recorded: no imaging-based tumor responses
- best overall response of stable disease, % of patients [7, 12]: 72%
- best overall response of stable disease, number of patients [7, 12]: 18
- PSADT increased, % of patients ([7]; Segment 2, After C1D1 (n = 25)): 52%
- PSADT increased, number of patients ([7]; Segment 2, After C1D1 (n = 25)): 13
- PSADT increased, % of patients ([7]; Segment 2, After C2D1 (n = 23)): 69.6%
- PSADT increased, number of patients ([7]; Segment 2, After C2D1 (n = 23)): 16
- PSADT increased, % of patients ([7]; Segment 2, After C3D1 (n = 13)): 61.4%
- PSADT increased, number of patients ([7]; Segment 2, After C3D1 (n = 13)): 8
- PSADT increase, % of patients ([7]; Segment 2 patients who received more than two cycles of the combined treatment): 61.5%
- PSA declines by the second on-treatment PSA assessment, number of patients ([7]; of 14 patients with PSA reductions): 11
- PSA reduction from baseline in one patient ([7]; patient who received 320 mg exicorilant with 160 mg enzalutamide): 71.1%
- PSA reduction from baseline in one patient ([7]; patient with 240 mg exicorilant + 160 mg enzalutamide): 36.7%
- increases in PSA doubling time, % of patients ([7]; patients dosed daily under fed conditions): more than 50%
- tumor growth ([2]; exicorilant with enzalutamide vs enzalutamide alone, castrated mice, N=10/group): significantly reduced tumor growth
- SAEs with a fatal outcome ([6]; Segment 2): No SAEs with a fatal outcome
- grade 5 TEAEs ([6]; all patients): no grade 5 adverse events; also recorded: no grade 5 TEAEs
- grade 4 TEAEs, number ([6]; human, in vivo): one
- tolerated phase 2 regimen, exicorilant dose ([6]; once-daily, combined with 160 mg enzalutamide once daily, based on DLTs): 240 mg
- dose-limiting events ([6]; segment 1, exicorilant BID fasted): Dose-limiting fatigue, musculoskeletal pain, and pancreatitis
- serum cortisol and ACTH levels (cortisol, ACTH): neither ACTH nor cortisol levels are significantly elevated
